In PubChem BioAssay (NCI):
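Method: 48-hour compound exposure of cells in 96-well plates, five concentrations, linear interpolation of endpoints. GI50 is the concentration that inhibits growth by half. TGI marks complete inhibition of growth.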

Experiments:
Assay in all cases: NCI anticancer screen, dose series, 48 h
ACHN renal = system: ACHN renal
SF-295 CNS = system: SF-295 CNS
NCI-H226 lung = system: NCI-H226 lung
SF-268 CNS = system: SF-268 CNS
T-47D breast = system: T-47D breast
SNB-75 CNS = system: SNB-75 CNS
TK-10 renal = system: TK-10 renal
PC-3 prostate = system: PC-3 prostate
IGROV1 ovarian = system: IGROV1 ovarian
K-562 leukemia = system: K-562 leukemia
U251 CNS = system: U251 CNS
HCC-2998 colon = system: HCC-2998 colon
SF-539 CNS = system: SF-539 CNS
OVCAR-8 ovarian = system: OVCAR-8 ovarian
OVCAR-3 ovarian = system: OVCAR-3 ovarian
NCI-H522 lung = system: NCI-H522 lung
CCRF-CEM leukemia = system: CCRF-CEM leukemia
HT29 colon = system: HT29 colon
SN12C renal = system: SN12C renal
NCI-H460 lung = system: NCI-H460 lung
UO-31 renal = system: UO-31 renal
RXF 393 renal = system: RXF 393 renal
SR leukemia = system: SR leukemia
MDA-MB-231 breast = system: MDA-MB-231 breast
CAKI-1 renal = system: CAKI-1 renal
M14 melanoma = system: M14 melanoma
RPMI-8226 leukemia = system: RPMI-8226 leukemia
OVCAR-5 ovarian = system: OVCAR-5 ovarian
MALME-3M melanoma = system: MALME-3M melanoma
A549 NSCLC = system: A549 NSCLC
HOP-92 NSCLC = system: HOP-92 NSCLC
SNB-19 CNS = system: SNB-19 CNS
SW-620 colon = system: SW-620 colon
SK-OV-3 ovarian = system: SK-OV-3 ovarian
SK-MEL-28 melanoma = system: SK-MEL-28 melanoma
OVCAR-4 ovarian = system: OVCAR-4 ovarian
MCF7 breast = system: MCF7 breast
SK-MEL-5 melanoma = system: SK-MEL-5 melanoma
UACC-62 melanoma = system: UACC-62 melanoma
COLO 205 colon = system: COLO 205 colon
MDA-MB-435 = system: MDA-MB-435
SK-MEL-2 melanoma = system: SK-MEL-2 melanoma
HOP-62 NSCLC = system: HOP-62 NSCLC
UACC-257 melanoma = system: UACC-257 melanoma
NCI-H23 lung = system: NCI-H23 lung
HL-60(TB) leukemia = system: HL-60(TB) leukemia
DU-145 prostate = system: DU-145 prostate
A498 renal = system: A498 renal
MDA-MB-468 breast = system: MDA-MB-468 breast
MOLT-4 leukemia = system: MOLT-4 leukemia
HCT-116 colon = system: HCT-116 colon
HS 578T breast = system: HS 578T breast
LOX IMVI melanoma = system: LOX IMVI melanoma
KM12 colon = system: KM12 colon
786-0 renal = system: 786-0 renal
HCT-15 colon = system: HCT-15 colon
EKVX NSCLC = system: EKVX NSCLC

CN1CCCN(Cc2ccc(C(=O)Nc3cccc(Nc4ccc5cc(O)ccc5n4)c3)cc2C(F)(F)F)CC1
GI50 (ACHN renal): 19.7 µM
TGI (ACHN renal): 38.4 µM
GI50 (SF-295 CNS): 17.3 µM
TGI (SF-295 CNS): 33.4 µM
GI50 (NCI-H226 lung): 13.8 µM
TGI (NCI-H226 lung): 28.9 µM
GI50 (SF-268 CNS): 17.3 µM
TGI (SF-268 CNS): 36.1 µM
GI50 (T-47D breast): 15.8 µM
TGI (T-47D breast): 33.3 µM
GI50 (SNB-75 CNS): 1.17 µM
TGI (SNB-75 CNS): 16.7 µM
GI50 (TK-10 renal): 18.5 µM
TGI (TK-10 renal): 32.8 µM
GI50 (PC-3 prostate): 13.1 µM
TGI (PC-3 prostate): 28.5 µM
GI50 (IGROV1 ovarian): 17.2 µM
TGI (IGROV1 ovarian): 32 µM
GI50 (K-562 leukemia): 1.18 µM
TGI (K-562 leukemia): 4.54 µM
GI50 (U251 CNS): 14.8 µM
TGI (U251 CNS): 30.6 µM
GI50 (HCC-2998 colon): 16.5 µM
TGI (HCC-2998 colon): 30.5 µM
GI50 (SF-539 CNS): 11.3 µM
TGI (SF-539 CNS): 24 µM
GI50 (OVCAR-8 ovarian): 18.9 µM
TGI (OVCAR-8 ovarian): 37.2 µM
GI50 (OVCAR-3 ovarian): 16.3 µM
TGI (OVCAR-3 ovarian): 29.9 µM
GI50 (NCI-H522 lung): 17 µM
TGI (NCI-H522 lung): 32 µM
GI50 (CCRF-CEM leukemia): 4.94 µM
TGI (CCRF-CEM leukemia): 25.7 µM
GI50 (HT29 colon): 13.3 µM
TGI (HT29 colon): 28.8 µM
GI50 (SN12C renal): 17.3 µM
TGI (SN12C renal): 31.7 µM
GI50 (NCI-H460 lung): 18 µM
TGI (NCI-H460 lung): 36.7 µM
GI50 (UO-31 renal): 15.2 µM
TGI (UO-31 renal): 29.7 µM
GI50 (RXF 393 renal): 12.5 µM
TGI (RXF 393 renal): 26.1 µM
GI50 (SR leukemia): 1.89 µM
TGI (SR leukemia): 5.3 µM
GI50 (MDA-MB-231 breast): 13.9 µM
TGI (MDA-MB-231 breast): 27.5 µM
GI50 (CAKI-1 renal): 14.1 µM
TGI (CAKI-1 renal): 27.8 µM
GI50 (M14 melanoma): 12.7 µM
TGI (M14 melanoma): 27.8 µM
GI50 (RPMI-8226 leukemia): 11.4 µM
TGI (RPMI-8226 leukemia): 35.9 µM
GI50 (OVCAR-5 ovarian): 15.3 µM
TGI (OVCAR-5 ovarian): 31 µM
GI50 (MALME-3M melanoma): 12.6 µM
TGI (MALME-3M melanoma): 25.6 µM
GI50 (A549 NSCLC): 16.2 µM
TGI (A549 NSCLC): 33.1 µM
GI50 (HOP-92 NSCLC): 10.4 µM
TGI (HOP-92 NSCLC): 23.3 µM
GI50 (SNB-19 CNS): 17 µM
TGI (SNB-19 CNS): 31.7 µM
GI50 (SW-620 colon): 14.5 µM
TGI (SW-620 colon): 28.9 µM
GI50 (SK-OV-3 ovarian): 17.6 µM
TGI (SK-OV-3 ovarian): 32 µM
GI50 (SK-MEL-28 melanoma): 13.9 µM
TGI (SK-MEL-28 melanoma): 29 µM
GI50 (OVCAR-4 ovarian): 15 µM
TGI (OVCAR-4 ovarian): 30 µM
GI50 (MCF7 breast): 9.83 µM
TGI (MCF7 breast): 24.7 µM
GI50 (SK-MEL-5 melanoma): 16.1 µM
TGI (SK-MEL-5 melanoma): 29.6 µM
GI50 (UACC-62 melanoma): 15.9 µM
TGI (UACC-62 melanoma): 30 µM
GI50 (COLO 205 colon): 18.5 µM
TGI (COLO 205 colon): 33.3 µM
GI50 (MDA-MB-435): 10.4 µM
TGI (MDA-MB-435): 22.1 µM
GI50 (SK-MEL-2 melanoma): 17.2 µM
TGI (SK-MEL-2 melanoma): 31.8 µM
GI50 (HOP-62 NSCLC): 17.8 µM
TGI (HOP-62 NSCLC): 31.8 µM
GI50 (UACC-257 melanoma): 14.7 µM
TGI (UACC-257 melanoma): 29.1 µM
GI50 (NCI-H23 lung): 16.8 µM
TGI (NCI-H23 lung): 32.1 µM
GI50 (HL-60(TB) leukemia): 11.9 µM
TGI (HL-60(TB) leukemia): 31.8 µM
GI50 (DU-145 prostate): 16.9 µM
TGI (DU-145 prostate): 30.6 µM
GI50 (A498 renal): 17.6 µM
TGI (A498 renal): 32 µM
GI50 (MDA-MB-468 breast): 8.88 µM
TGI (MDA-MB-468 breast): 21.6 µM
GI50 (MOLT-4 leukemia): 2.05 µM
TGI (MOLT-4 leukemia): 14.5 µM
GI50 (HCT-116 colon): 6.51 µM
TGI (HCT-116 colon): 22.1 µM
GI50 (HS 578T breast): 14.8 µM
TGI (HS 578T breast): 50.2 µM
GI50 (LOX IMVI melanoma): 12.1 µM
TGI (LOX IMVI melanoma): 25 µM
GI50 (KM12 colon): 14.1 µM
TGI (KM12 colon): 28.1 µM
GI50 (786-0 renal): 16 µM
TGI (786-0 renal): 30.1 µM
GI50 (HCT-15 colon): 16.4 µM
TGI (HCT-15 colon): 33.9 µM
GI50 (EKVX NSCLC): 16 µM
TGI (EKVX NSCLC): 31.3 µM
